Where “and” joins values, the source holds several entries; their conditions need not be identical. Equal entries are not always repeated.
Experiments:
Tyrosinase [1] = biological target: T1, Tyrosinase (Agaricus bisporus, UniProt O42713); assay: Inhibition of mushroom tyrosinase using L-dopa as substrate measured for 150 secs by spectrophotometric analysis
T1 sequence (O42713 whole entry): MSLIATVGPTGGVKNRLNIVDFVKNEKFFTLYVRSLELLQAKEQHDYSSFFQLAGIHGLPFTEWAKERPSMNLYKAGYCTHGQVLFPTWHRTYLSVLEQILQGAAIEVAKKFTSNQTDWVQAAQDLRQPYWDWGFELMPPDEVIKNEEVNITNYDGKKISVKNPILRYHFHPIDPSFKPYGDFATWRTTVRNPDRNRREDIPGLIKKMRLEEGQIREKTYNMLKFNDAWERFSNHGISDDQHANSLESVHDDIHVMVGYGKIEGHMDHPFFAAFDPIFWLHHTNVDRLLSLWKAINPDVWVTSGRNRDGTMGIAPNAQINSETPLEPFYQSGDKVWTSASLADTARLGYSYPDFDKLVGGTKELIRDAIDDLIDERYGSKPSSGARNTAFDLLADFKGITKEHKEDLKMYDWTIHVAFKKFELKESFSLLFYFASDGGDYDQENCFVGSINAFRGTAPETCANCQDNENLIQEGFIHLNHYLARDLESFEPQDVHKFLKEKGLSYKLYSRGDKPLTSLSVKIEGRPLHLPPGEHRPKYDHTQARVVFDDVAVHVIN

Tyrosinase [2] = biological target: T1, Tyrosinase; assay: Inhibition of mushroom tyrosinase using L-dopa as substrate preincubated for 10 mins followed by substrate addition and measured for 1 min
Tyrosinase [3] = biological target: T2, Tyrosinase (Mus musculus, UniProt P11344); assay: Inhibition of tyrosinase in mouse B16 cells using L-DOPA as substrate preincubated for 72 hrs followed by substrate addition and measured after 30 mins; format: cell-based
T2 sequence (P11344 whole entry): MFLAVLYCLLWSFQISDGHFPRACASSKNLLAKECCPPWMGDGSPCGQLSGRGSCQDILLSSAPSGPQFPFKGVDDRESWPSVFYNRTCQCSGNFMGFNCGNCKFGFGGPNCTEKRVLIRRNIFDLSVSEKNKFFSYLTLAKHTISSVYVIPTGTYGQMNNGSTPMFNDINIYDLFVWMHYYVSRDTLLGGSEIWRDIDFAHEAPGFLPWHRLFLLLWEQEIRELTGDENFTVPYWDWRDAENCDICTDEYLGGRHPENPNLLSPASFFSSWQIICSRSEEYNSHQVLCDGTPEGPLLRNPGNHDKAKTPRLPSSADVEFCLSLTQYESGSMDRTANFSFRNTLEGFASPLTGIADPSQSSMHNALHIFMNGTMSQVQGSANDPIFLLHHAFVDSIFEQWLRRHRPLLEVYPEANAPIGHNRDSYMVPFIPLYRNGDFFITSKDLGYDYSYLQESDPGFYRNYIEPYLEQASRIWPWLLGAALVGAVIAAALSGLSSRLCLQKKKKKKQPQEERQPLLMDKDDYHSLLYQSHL

Tyrosinase [4] = biological target: T1, Tyrosinase; assay: Inhibition of mushroom tyrosinase using L-dopa as substrate preincubated for 2 mins followed by substrate addition and measured for 5 mins by spectrophotometric analysis
Tyrosinase [5] = biological target: T1, Tyrosinase
[6] = biological target: T3, Tyrosinase (Agaricus bisporus) (UniProt O42713); assay: (§1) Mixed-type inhibition of mushroom tyrosinase by Lineweaver-Burk plot analysis
T3 sequence (whole entry): T1 sequence (O42713 whole entry)

Tyrosinase [7] = biological target: T1, Tyrosinase; assay: as §1
Tyrosinase [8] = biological target: T1, Tyrosinase; assay: Inhibition of mushroom tyrosinase monophenolase activity using L-tyrosine as substrate
Tyrosinase [9] = biological target: T1, Tyrosinase; assay: Reversible competitive inhibition of mushroom tyrosinase using L-dopa as substrate preincubated for 2 mins followed by substrate addition and measured for 5 mins by Lineweaver-Burk plot analysis
Tyrosinase [10] = biological target: T1, Tyrosinase; assay: Non-competitive inhibition of mushroom tyrosinase by Lineweaver-Burk plot analysis
Tyrosinase [11] = biological target: T1, Tyrosinase; assay: Inhibition of mushroom tyrosinase monophenolase activity using L-tyrosine as substrate after 10 mins by spectrophotometric analysis
[12] = biological target: T3, Tyrosinase (Agaricus bisporus); assay: Mixed-type inhibition of mushroom tyrosinase after 10 mins by Lineweaver-Burk plot analysis
Tyrosinase [13] = biological target: T1, Tyrosinase; assay: Inhibition of mushroom tyrosinase diphenolase activity using L-dopa as substrate after 10 mins by spectrophotometric analysis
Tyrosinase [14] = biological target: T1, Tyrosinase; assay: Reversible inhibition of mushroom tyrosinase after 10 mins by Lineweaver-Burk plot analysis
[15] = biological target: T3, Tyrosinase (Agaricus bisporus)
Description: (§5) Reversible mixed-type inhibition of mushroom tyrosinase using L-dopa as substrate by Lineweaver-Burk plot analysis

Tyrosinase [16] = biological target: T1, Tyrosinase; remark: listed apart in the source
Description: as §5

[17] = biological target: T3, Tyrosinase (Agaricus bisporus); assay: (§2) Mixed-type inhibition of mushroom tyrosinase using L-tyrosine as substrate by Lineweaver-Burk plot analysis
Tyrosinase [18] = biological target: T1, Tyrosinase; assay: as §2
[19] = biological target: T3, Tyrosinase (Agaricus bisporus); assay: (§3) Mixed-type inhibition of mushroom tyrosinase using L-dopa as substrate preincubated for 5 mins followed by substrate addition and measured for 3 mins
Tyrosinase [20] = biological target: T1, Tyrosinase; assay: as §3
Tyrosinase [21] = biological target: T1, Tyrosinase; assay: Non-competitive inhibition of mushroom tyrosinase using L-dopa as substrate preincubated for 5 mins followed by substrate addition and measured for 5 mins
[22] = biological target: T3, Tyrosinase (Agaricus bisporus); assay: (§4) Reversible mixed-type inhibition of mushroom tyrosinase by Lineweaver-Burk plot analysis
Tyrosinase [23] = biological target: T1, Tyrosinase; assay: as §4
Tyrosinase [24] = biological target: T1, Tyrosinase; assay: Reversible competitive inhibition of mushroom tyrosinase after 10 mins by Lineweaver-Burk plot analysis

## CCC(=O)OCc1csc(/C=N/NC(N)=S)c1
Tyrosinase [1]
  IC50: 161 nM

## N=C(S)N/N=C/c1ccc(Oc2ccc(F)cc2)cc1
Tyrosinase [2]
  IC50: 1460 nM

## CCCCCCCCCCC/C(=N\NC(N)=S)c1ccccc1
Tyrosinase [3]
  IC50: < 1000 nM

## CNC(=S)N/N=C(\C)c1ccccc1O
Tyrosinase [4]
  IC50: 108000 nM

## NC(=S)N/N=C/c1ccc(Cl)cc1
Tyrosinase [5]
  IC50: 1820 nM
[6]
  Kis: 2.49 µM
Tyrosinase [7]
  Ki: 1250 nM
Tyrosinase [8]
  IC50: 6700 nM

## NC(=S)N/N=C/c1cc(COC(=O)C2CCCCC2)cs1
Tyrosinase [1]
  IC50: 136 nM

## C/C(=N\NC(N)=S)c1ccc[nH]1
Tyrosinase [5]
  IC50: 4150 nM

## CCCCOc1ccc(/C=N/NC(N)=S)cc1
Tyrosinase [2]
  IC50: 1310 nM

## CCCCCC/C(=N\NC(N)=S)c1ccccc1
Tyrosinase [3]
  IC50: < 1000 nM

## COc1ccc(OC)c(/C=N/NC(N)=S)c1
Tyrosinase [2]
  IC50: > 50000 nM

## COCc1csc(/C=N/NC(N)=S)c1
Tyrosinase [1]
  IC50: 740 nM

## C/C(=N\NC(N)=S)c1cccs1
Tyrosinase [5]
  IC50: 1410 nM

## CNC(=S)N/N=C(\C)c1ccc(O)cc1O
Tyrosinase [4]
  IC50: 6000 nM
Tyrosinase [9]
  Ki: 5000 nM

## CN(C)c1ccc(/C=N/NC(=S)Nc2ccccc2)cc1
Tyrosinase [5]
  IC50: 800 nM
Tyrosinase [10]
  Ki: 770 nM
Tyrosinase [8]
  IC50: 1780 nM

## NC(=S)N/N=C/c1cc(COCCO)cs1
Tyrosinase [1]
  IC50: 1420 nM

## CCCOc1ccc(/C=N/NC(N)=S)cc1
Tyrosinase [2]
  IC50: 3030 nM

## COc1ccc(/C=N/NC(N)=S)cc1
Tyrosinase [11]
  IC50: 7000 nM
[12]
  Kis: 15.1 µM
Tyrosinase [3]
  IC50: 139000 nM
Tyrosinase [13]
  IC50: 2620 nM
Tyrosinase [14]
  Ki: 1470 nM
Tyrosinase [2]
  IC50: 1480 nM

## NC(=S)N/N=C/c1cc(COC=O)cs1
Tyrosinase [1]
  IC50: 196 nM

## NC(=S)N/N=C/c1ccc[nH]1
Tyrosinase [5]
  IC50: 3990 nM
[15]
  Kis: 0.29 µM
Tyrosinase [16]
  Ki: 80 nM

## NC(=S)N/N=C/c1cc(COC(=O)c2ccccc2)cs1
Tyrosinase [1]
  IC50: 68 nM

## NC(=S)N/N=C/c1cccs1
Tyrosinase [5]
  IC50: 430 nM
[15]
  Kis: 2.59 µM
Tyrosinase [16]
  Ki: 167000 nM

## COCCOCCOc1ccc(/C=N/NC(N)=S)cc1
Tyrosinase [2]
  IC50: 340 nM

## CN(C)c1ccc(/C=N/NC(N)=S)cc1
Tyrosinase [5]
  IC50: 2020 nM
[17]
  Kis: 6.49 µM
Tyrosinase [18]
  Ki: 1770 nM
Tyrosinase [8]
  IC50: 1540 nM

## CC(=O)OCc1csc(/C=N/NC(N)=S)c1
Tyrosinase [1]
  IC50: 340 nM

## CC(C)/C(=N\NC(N)=S)c1ccccc1
Tyrosinase [3]
  IC50: < 2300 nM

## C=CCOc1ccc(/C=N/NC(N)=S)cc1
Tyrosinase [2]
  IC50: 1290 nM

## CC(C)Oc1ccc(/C=N/NC(N)=S)cc1
Tyrosinase [2]
  IC50: 900 nM

## CCCCC/C(=N\NC(N)=S)c1ccccc1
Tyrosinase [3]
  IC50: < 1000 nM

## CCOCc1csc(/C=N/NC(N)=S)c1
Tyrosinase [1]
  IC50: 490 nM

## CNC(=S)N/N=C(\C)c1ccccc1
Tyrosinase [4]
  IC50: 213000 nM

## CCC/C(=N\NC(N)=S)c1ccccc1
Tyrosinase [3]
  IC50: < 1000 nM

## NC(=S)N/N=C/c1ccccc1 [PHENYLTHIOSEMICARBAZONE]
[19]
  Kis: 93 µM
Tyrosinase [20]
  Ki: 930 nM
Tyrosinase [3]
  IC50: 10200 nM
Tyrosinase [21]
  Ki: 3700 nM

## CCCC(=O)OCc1csc(/C=N/NC(N)=S)c1
Tyrosinase [1]
  IC50: 105 nM

## NC(=S)N/N=C/C=C/c1ccccc1
[22]
  Kis: 8.85 µM
Tyrosinase [23]
  Ki: 4450 nM

## CC/C(=N\N=C(\N)S)c1ccccc1
Tyrosinase [3]
  IC50: < 1000 nM

## CNC(=S)N/N=C(\C)c1ccc(OC)cc1
Tyrosinase [4]
  IC50: 65000 nM

## NC(=S)N/N=C/c1ccc(O)cc1Br
Tyrosinase [2]
  IC50: 330 nM

## CCCC/C(=N\NC(N)=S)c1ccccc1
Tyrosinase [3]
  IC50: 1200 nM

## COc1ccc(/C=N/NC(N)=S)cc1O
Tyrosinase [2]
  IC50: 4880 nM

## NC(=S)N/N=C/c1ccccc1Cl
Tyrosinase [5]
  IC50: 1220 nM
Tyrosinase [10]
  Ki: 1200 nM
Tyrosinase [8]
  IC50: 15400 nM

## CCCCC(=O)OCc1csc(/C=N/NC(N)=S)c1
Tyrosinase [1]
  IC50: 110 nM

## NC(=S)N/N=C/c1cc(CO)cs1
Tyrosinase [1]
  IC50: 670 nM

## CC(C)COc1ccc(/C=N/NC(N)=S)cc1
Tyrosinase [2]
  IC50: 2210 nM

## CCOc1ccc(/C=N/NC(N)=S)cc1
Tyrosinase [2]
  IC50: 1920 nM

## NC(=S)N/N=C/c1cccc(O)c1
Tyrosinase [2]
  IC50: 3900 nM

## NC(=S)N/N=C/c1ccc(OCOC(CO)CO)cc1
Tyrosinase [2]
  IC50: 940 nM

## NC(=S)N/N=C/c1ccc(Br)cc1
Tyrosinase [2]
  IC50: 280 nM

## CC(C)C/C(=N\NC(N)=S)c1ccccc1
Tyrosinase [3]
  IC50: < 1000 nM

## NC(=S)N/N=C/c1ccccc1O
Tyrosinase [2]
  IC50: 380 nM

## C/C(=N\N=C(/N)S)c1ccccc1 [PHENYL(METHYL)THIOSEMICARBAZONE]
[12]
  Kis: 0.83 µM and 1.4 µM
Tyrosinase [3]
  IC50: 2000 nM
Tyrosinase [24]
  Ki: 380 nM

## CNC(=S)N/N=C(\C)c1ccc(OC)cc1O
Tyrosinase [4]
  IC50: 18000 nM

## NC(=S)N/N=C/c1cc(COC(=O)C2CCCC2)cs1
Tyrosinase [1]
  IC50: 140 nM

## CCCCCOc1ccc(/C=N/NC(N)=S)cc1
Tyrosinase [2]
  IC50: 1090 nM

## C/C(=N\NC(N)=S)c1ccco1
Tyrosinase [5]
  IC50: 824 nM

## COCCOc1ccc(/C=N/NC(N)=S)cc1
Tyrosinase [2]
  IC50: 750 nM

## NC(=S)N/N=C/c1ccc(O)cc1
Tyrosinase [11]
  IC50: 760 nM
[12]
  Kis: 6.79 µM
Tyrosinase [13]
  IC50: 3800 nM
Tyrosinase [14]
  Ki: 2820 nM
Tyrosinase [2]
  IC50: 410 nM

## COCCCCOc1ccc(/C=N/NC(N)=S)cc1
Tyrosinase [2]
  IC50: 410 nM

## NC(=S)N/N=C/c1ccco1
Tyrosinase [5]
  IC50: 2350 nM
[15]
  Kis: 1.18 µM
Tyrosinase [16]
  Ki: 600 nM

## NC(=S)N/N=C/c1ccc(Oc2ccccc2)cc1
Tyrosinase [2]
  IC50: 980 nM

## CCCCOCCOc1ccc(/C=N/NC(N)=S)cc1
Tyrosinase [2]
  IC50: 920 nM

## COc1cc(/C=N/NC(N)=S)ccc1O
Tyrosinase [2]
  IC50: 5680 nM

## NC(=S)N/N=C/c1ccc(-c2ccccc2)s1
Tyrosinase [1]
  IC50: 670 nM

## NC(=S)N/N=C/c1ccc(OCOCCO)cc1
Tyrosinase [2]
  IC50: 370 nM

## NC(=S)N/N=C/c1ccc(O)c(O)c1
Tyrosinase [2]
  IC50: > 40000 nM

## NC(=S)N/N=C/c1ccc(OCCO)cc1
Tyrosinase [2]
  IC50: 530 nM

## NC(=S)N/N=C/c1cc(O)cc(O)c1
Tyrosinase [2]
  IC50: > 30000 nM

## NC(=S)N/N=C/c1ccc(O)cc1O
Tyrosinase [2]
  IC50: 180 nM

From ChEMBL document CHEMBL4368896, “Thiosemicarbazones with tyrosinase inhibitory activity” (Medchemcomm, 2019)
